Measurements taken from patent US10143668B2, “Hydroxy-substituted amino and ammonium derivatives and their medical use” (GRI BIO, INC., priority 2011, dated 2018).
Read-outs that look alike come from different tables or passages of the source.

Assays:
[1] = system: RBL-2H3 cells; experiment: Maximum tolerated concentration (cytotoxicity by lactate dehydrogenase release); type: cell-based, rat
From the text: The safety index (SI) of a test compound is the ratio between the maximum tolerated concentration and the IC50 and is used as a measure of the relative safety of the test compound.

[2] = system: DTH response in mice; type: in vivo; conditions: for Inhibition of mouse ear swelling: 24 h after challenge
Method: The anti-inflammatory and anti-allergic effects of compound 1a was assessed in a mouse model of skin delayed-type hypersensitivity (DTH) reactions and compared to a vehicle control and to the reference drug, dexamethasone. DTH reactions are antigen-specific cell-mediated immune responses, driven primarily by T helper type 1 (Th1) cells, similar to the tuberculin immunization response. The immune reaction induced by an ovalbumin challenge to animals previously sensitized with ovalbumin in Complete Freund's Adjuvant, is characterized by swelling (edema) at the site of challenge, e.g. the mouse ear. Dexamethasone, an anti-inflammatory steroid, reduces cell-mediated immune responses and was employed to validate the responsiveness of the assay to pharmacological treatment.
Female BALB/cJW mice were bred at the University of Lodz, Lodz, Poland and housed in groups of 8 in makrolon cages with a 12 h light-dark cycle. Mice were given free access to food (Agropol S. j., Motycz, Poland) and water.
Sensitization: The protein antigen, ovalbumin, was reconstituted in PBS at 4 mg/ml. An ovalbumin-CFA emulsion was prepared by mixing the protein solution with the CFA suspension at a ratio of 1:1, using two Luer-lock syringes. The emulsion was tested by putting a drop of emulsion onto PBS; if the emulsion remained as a tight droplet on the PBS, the emulsion was deemed ready. Mice were sensitized by subcutaneously injecting 25 μL of emulsion into each side of the tail (100 μg ovalbumin per mouse).
Challenge: On the sixth day after sensitization, DTH was elicited by challenging animals subcutaneously (gauge 30 needle, B. Braun Melsungen, Melsungen, Germany) in the left ears with 10 μL of a 1% suspension of heat-aggregated ovalbumin (HOVA) (100 μg ovalbumin per mouse). The right ears were administered subcutaneously with PBS and served to determine the individual differences in ear thicknesses. HOVA was prepared by heating a 5% solution of ovalbumin in saline for 1 h at 80° C. with occasional swirling. After cooling to room temperature and centrifugation (400 g, 10 min at 4° C.), the pellet was washed twice with saline, resuspended at 2% in PBS and aliquots stored at −30° C. Before injection, HOVA was diluted with an equal volume of PBS and sonicated. Ear thickness was measured with a precise spring-loaded caliper (Art. No. 7309, Mitutoyo, Kawasaki, Japan) before challenge, and 24 h after challenge.
Sensitization, challenge and ear thickness measurement were performed under anesthesia (ketamine 80 mg/kg plus xylazine 8 mg/kg, intraperitoneally).
The anti-inflammatory effects of compound 1a were compared to a vehicle control (0.5% methyl cellulose solution) and to the reference drug, dexamethasone. Test compound was given at 25 or 100 mg/kg orally by gavage (Art. No. 432093, Harvard Apparatus GmbH, March-Hugstetten, Germany) 16 h and 3 h before sensitization and then twice daily with the final dose given 3 h prior to ear challenge (a total of 14 administrations). Dexamethasone was given at 0.1 or 1 mg/kg orally by gavage 3 h before sensitization and once daily with the final dose given 3 h prior to antigen challenge (a total of 7 administrations). All administrations were given in a volume of 10 mL/kg.
To account for individual variability, the increase in right ear thickness, before and 24 h after administration of PBS, was subtracted from the HOVA-induced increase in left ear thickness. […]
Mean and standard deviation (SD) were calculated from individual ear edema values. […]

[3] = system: local lymph node reaction; experiment: Local lymph node weight and cell count after TDI challenge; conditions: topical, diflorasone 0.1% and 0.5%, 1a 2% or 6%
Method: Directly after sacrifice, the ear draining lymph node (Ln. auricularis) was prepared and excised. Organ weight was determined by means of an analytical balance (Kern, Balingen, Germany). Single cell suspensions were prepared by means of a glass potter (VWR, Darmstadt, Germany) and cells were counted with a hemocytometer (Neubauer, VWR, Germany).
One of the most undesirable side-effects of corticosteroid administration is immunosuppression, which leads to the inability to effectively address parasitic infection, wound healing and tumor growth. In the current study, the local lymph node reaction after TDI challenge (lymph node weight and cell number) was determined to assess the response of immune organs.

Question: For `CCCCCCCCCCCCCC[N+](C)(C)CC(=O)N(C)C[C@H](O)[C@@H](O)[C@H](O)[C@H](O)CO` [Compound 1a, N-(2-(Dimethyl(tetradecyl)ammonio)acetyl)-N-methyl-D-glucamine chloride], which “MTC (maximum tolerated concentration)” value ([1]; highest concentration not causing cytotoxicity (LDH release)) is on record?
Answer: 150 µM

Question: And the “SI (safety index)” value ([1]; ratio between MTC and IC50)?
Answer: 39.5

Question: And the “Inhibition of mouse ear swelling” value ([2]; 25 mg/kg orally twice daily)?
Answer: 43%

Question: What about the “Inhibition of mouse ear swelling” value ([2]; 100 mg/kg orally twice daily) of the same compound?
Answer: 50%

Question: And the “inhibition relative to that of the high dose of dexamethasone” value ([2]; 25 or 100 mg/kg orally twice daily vs dexamethasone 1 mg/kg)?
Answer: up to 94%

Question: And the “local lymph node reaction (lymph node weight and cell number)” value [3]?
Answer: only a modest effect
